{
  "source": "patent US20190203212A1",
  "about": "“INDUCIBLE DNA BINDING PROTEINS AND GENOME PERTURBATION TOOLS AND APPLICATIONS THEREOF” (Massachusetts Institute of Technology, priority 2013, published 2019)",
  "tested_on": "Grm2",
  "assay": "AAV-delivered TALE / LITE modulation of Grm2 mRNA in primary cortical neurons, qRT-PCR",
  "type": "cell-based, mouse",
  "conditions": "neurons expressing only one LITE component",
  "description": "FIG. 18 depicts metabotropic glutamate receptor 2 (mGlur2) LITE activity in mouse cortical neuron culture. A mGluR2 targeting LITE was constructed via the plasmids pAAV-human Synapsin I promoter (hSyn)-HA-TALE(mGluR2)-CIB1 and pAAV-hSyn-CRY2PHR-VP64-2A-GFP. These fusion constructs were then packaged into adeno associated viral vectors (AAV). Additionally, AAV carrying hSyn-TALE-VP64-2A-GFP and GFP only were produced. Embryonic mouse (E16) cortical cultures were plated on Poly-L-lysine coated 24 well plates. After 5 days in vitro neural cultures were co-transduced with a mixture of TALE(mGluR2)-CIB1 and CRY2PHR-VP64 AAV stocks. Control samples were transduced with either TALE(mGluR2)-VP64 AAV or GFP AAV. 6 days after AAV transduction, experimental samples were stimulated using either of two light pulsing paradigms: 0.5 s per min and 0.25 sec per 30 sec. Neurons were stimulated for 24 h and harvested for qPCR analysis. All mGluR2 expression levels were normalized to the respective stimulated GFP control. […]\nLight stimulation was started 6 days after AAV transduction (DIV 11) with an intensity of 5 mW/cm^2, duty cycle of 0.8% (250 ms pulses at 0.033 Hz or 500 ms pulses at 0.016 Hz), 466 nm blue light for 24 h unless indicated otherwise in figure legends. […] Relative mRNA levels were measured by quantitative real-time PCR (qRT-PCR) using TaqMan probes as described above for Neuro 2a cells. […]",
  "data": [
    {"substance": "CRY2PHR-VP64: LITE effector component alone", "values": [
      {"measurement": "Grm2 mRNA versus GFP controls, single LITE component", "value": "did not significantly affect transcription"}
    ]}
  ]
}
